Assay results reported in patent US9260425B2 (Genetech, Inc., priority 2011, dated 2016).

These compounds were tested against Pim-1 (Homo sapiens (Human), UniProt P11309) (assay: Pim kinase binding activity assay (Example 901), PIM-1 enzyme, Caliper microfluidic peptide phosphorylation). Details: 20 pM PIM-1, 10 μM ATP, 1 μM FAM-peptide, 90 minutes at room temperature.
Type: biochemical
In short: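 The readout was microfluidic mobility-shift separation of a FAM-tagged Pim-specific peptide, excited at 488 nm and read at 530 nm, with Ki calculated from percent conversion. Reactions held 20 pM PIM-1, 1 μM peptide and 10 μM ATP in pH 7.2 HEPES/MgCl2/DTT buffer, ran 90 min at room temperature and were stopped with EDTA.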

Pim-1, sequence (P11309 whole entry): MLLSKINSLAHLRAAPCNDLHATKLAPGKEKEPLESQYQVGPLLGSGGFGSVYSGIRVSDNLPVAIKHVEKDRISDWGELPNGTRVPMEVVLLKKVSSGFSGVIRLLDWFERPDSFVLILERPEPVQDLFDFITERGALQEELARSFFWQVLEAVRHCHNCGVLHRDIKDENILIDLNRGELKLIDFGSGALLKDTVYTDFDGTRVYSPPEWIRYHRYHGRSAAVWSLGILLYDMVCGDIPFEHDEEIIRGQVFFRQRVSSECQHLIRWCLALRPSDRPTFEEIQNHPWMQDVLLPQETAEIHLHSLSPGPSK

In order of falling Ki:
1. Cc1n[nH]c2cnc(-c3cncnc3)cc12 [Example 115, 3-methyl-5-(pyrimidin-5-yl)-1H-pyrazolo[3,4-c]pyridine]  3500 nM
2. c1ccc(-c2cc3c(-c4ccccn4)n[nH]c3cn2)nc1 [Example 256, 3,5-di(pyridin-2-yl)-1H-pyrazolo[3,4-c]pyridine]  1500 nM
3. Cc1n[nH]c2cnc(-c3ccn[nH]3)cc12 [Example 103, 3-methyl-5-(1H-pyrazol-5-yl)-1H-pyrazolo[3,4-c]pyridine]  1300 nM
4. NC[C@@H]1CCCN(c2ccncc2-c2cc3c(-c4ccccc4F)n[nH]c3cn2)C1 [Example 140, (S)-(1-(3-(3-(2-fluorophenyl)-1H-pyrazolo[3,4-c]pyridin-5-yl)pyridin-4-yl)piperidin-3-yl)methanamine]  412 nM
5. NC1CCCN(c2ccncc2-c2cc3c(-c4ccccc4F)n[nH]c3cn2)CC1 (centres unmarked) [Example 139, 1-(3-(3-(2-fluorophenyl)-1H-pyrazolo[3,4-c]pyridin-5-yl)pyridin-4-yl)azepan-4-amine]  255 nM
6. Cc1n[nH]c2cnc(-c3cccnc3)cc12 [Example 101, 3-methyl-5-(pyridin-3-yl)-1H-pyrazolo[3,4-c]pyridine]  190 nM
7. N[C@H]1CCCN(c2cccc(-c3n[nH]c4cnc(N5CCNC(=O)C5)cc34)n2)C1 [Example 345, (S)-4-(3-(6-(3-aminopiperidin-1-yl)pyridin-2-yl)-1H-pyrazolo[3,4-c]pyridin-5-yl)piperazin-2-one]  13.7 nM
8. c1cc(-c2n[nH]c3cnc(C4CCOC4)cc23)nc(N2CCNCC2)c1 (centres unmarked) [Example 212, 3-(6-(piperazin-1-yl)pyridin-2-yl)-5-(tetrahydrofuran-3-yl)-1H-pyrazolo[3,4-c]pyridine]  8.48 nM
9. Cc1ccc(-c2n[nH]c3cnc(-c4cccnc4)cc23)nc1F [Example 274, 3-(6-fluoro-5-methylpyridin-2-yl)-5-(pyridin-3-yl)-1H-pyrazolo[3,4-c]pyridine]  4.77 nM
10. c1cc(-c2n[nH]c3cnc(N4CCOCC4)cc23)nc(N2CCNCC2)c1 [Example 401, 4-(3-(6-(piperazin-1-yl)pyridin-2-yl)-1H-pyrazolo[3,4-c]pyridin-5-yl)morpholine]  3.29 nM
11. c1cncc(-c2cc3c(-c4cn[nH]c4)n[nH]c3cn2)c1 [Example 156, 3-(1H-pyrazol-4-yl)-5-(pyridin-3-yl)-1H-pyrazolo[3,4-c]pyridine]  2.31 nM
12. NC1CCN(c2cncc(-c3n[nH]c4cnc(-c5cccnc5)cc34)c2)CC1 [Example 158, 1-(5-(5-(pyridin-3-yl)-1H-pyrazolo[3,4-c]pyridin-3-yl)pyridin-3-yl)piperidin-4-amine]  2.1 nM
13. NCC1CCN(c2cncc(-c3cc4c(-c5ccccc5F)n[nH]c4cn3)c2)CC1 [Example 167, (1-(5-(3-(2-fluorophenyl)-1H-pyrazolo[3,4-c]pyridin-5-yl)pyridin-3-yl)piperidin-4-yl)methanamine]  1.71 nM
14. NCC1CCN(c2cncc(-c3n[nH]c4cnc(-c5cccnc5)cc34)c2)CC1 [Example 165, (1-(5-(5-(pyridin-3-yl)-1H-pyrazolo[3,4-c]pyridin-3-yl)pyridin-3-yl)piperidin-4-yl)methanamine]  0.985 nM
15. Cn1cc(-c2cc3c(-c4cccc(N5CCC[C@@H](N)C5)c4)n[nH]c3cn2)cn1 [Example 222, (R)-1-(3-(5-(1-methyl-1H-pyrazol-4-yl)-1H-pyrazolo[3,4-c]pyridin-3-yl)phenyl)piperidin-3-amine]  0.387 nM
16. NCCNc1cccc(-c2n[nH]c3cnc(-c4cccnc4)cc23)n1 [Example 143, N1-(6-(5-(pyridin-3-yl)-1H-pyrazolo[3,4-c]pyridin-3-yl)pyridin-2-yl)ethane-1,2-diamine]  0.312 nM
17. N[C@@H]1CCC[C@H](Nc2cccc(-c3n[nH]c4cnc(-c5cccnc5)cc34)n2)C1 [Example 239, (1S,3R)—N1-(6-(5-(pyridin-3-yl)-1H-pyrazolo[3,4-c]pyridin-3-yl)pyridin-2-yl)cyclohexane-1,3-diamine]  0.3 nM
18. NCC1CCCCN1c1cccc(-c2n[nH]c3cnc(-c4cccnc4)cc23)n1 (centres unmarked) [Example 324, (1-(6-(5-(pyridin-3-yl)-1H-pyrazolo[3,4-c]pyridin-3-yl)pyridin-2-yl)piperidin-2-yl)methanamine]  0.296 nM
19. CCn1cc(-c2cc3c(-c4cccc(N5CCN(C)CC5)n4)n[nH]c3cn2)cn1 [Example 372, 5-(1-ethyl-1H-pyrazol-4-yl)-3-(6-(4-methylpiperazin-1-yl)pyridin-2-yl)-1H-pyrazolo[3,4-c]pyridine]  0.268 nM
20. Cn1cc(-c2cc3c(-c4ccc(Br)c(N5CCOCC5)n4)n[nH]c3cn2)cn1 [Example 449, 4-(3-bromo-6-(5-(1-methyl-1H-pyrazol-4-yl)-1H-pyrazolo[3,4-c]pyridin-3-yl)pyridin-2-yl)morpholine]  0.191 nM
21. Fc1ccccc1-c1n[nH]c2cnc(-c3cnccc3OC[C@@H]3CCNC3)cc12 [Example 209, (R)-3-(2-fluorophenyl)-5-(4-(pyrrolidin-3-ylmethoxy)pyridin-3-yl)-1H-pyrazolo[3,4-c]pyridine]  0.189 nM
22. Cn1cc(-c2cc3c(-c4cccc(N5C[C@@H]6C[C@H]5CN6)n4)n[nH]c3cn2)cn1 [Example 216, 3-(6-((1S,4S)-2,5-diazabicyclo[2.2.1]heptan-2-yl)pyridin-2-yl)-5-(1-methyl-1H-pyrazol-4-yl)-1H-pyrazolo[3,4-c]pyridine]  0.126 nM
23. CCn1cc(-c2cc3c(-c4ccc(C)c(N5CCC[C@@H](N)C5)n4)n[nH]c3cn2)cn1 [Example 443, (R)-1-(6-(5-(1-ethyl-1H-pyrazol-4-yl)-1H-pyrazolo[3,4-c]pyridin-3-yl)-3-methylpyridin-2-yl)piperidin-3-amine]  0.1 nM
24. OC1CN(c2cccc(-c3n[nH]c4cnc(-c5cccnc5)cc34)n2)CCC1F (centres unmarked) [Example 435, 4-fluoro-1-(6-(5-(pyridin-3-yl)-1H-pyrazolo[3,4-c]pyridin-3-yl)pyridin-2-yl)piperidin-3-ol]  0.089 nM
25. Cc1ccc(-c2n[nH]c3cnc(-c4cccnc4)cc23)nc1N1CCC(O)CC1 [Example 288, 1-(3-methyl-6-(5-(pyridin-3-yl)-1H-pyrazolo[3,4-c]pyridin-3-yl)pyridin-2-yl)piperidin-4-ol]  0.086 nM
26. CCn1cc(-c2cc3c(-c4cccc(N5CCNC(CO)C5)n4)n[nH]c3cn2)cn1 (centres unmarked) [Example 463, (4-(6-(5-(1-ethyl-1H-pyrazol-4-yl)-1H-pyrazolo[3,4-c]pyridin-3-yl)pyridin-2-yl)piperazin-2-yl)methanol]  0.084 nM
27. N[C@@H]1CCC[C@H](Nc2cccc(-c3n[nH]c4cnc(-c5cccnc5)cc34)n2)C1 [Example 341, (1S,3R)-N1-(6-(5-(pyridin-3-yl)-1H-pyrazolo[3,4-c]pyridin-3-yl)pyridin-2-yl)cyclohexane-1,3-diamine]  0.077 nM
28. CN1CCN(c2nc(-c3n[nH]c4cnc(-c5cnn(C)c5)cc34)ccc2Br)CC1 [Example 402, 3-(5-bromo-6-(4-methylpiperazin-1-yl)pyridin-2-yl)-5-(1-methyl-1H-pyrazol-4-yl)-1H-pyrazolo[3,4-c]pyridine]  0.07 nM
29. Cn1cc(-c2cc3c(-c4ccnc(N5CCC[C@@H](N)C5)n4)n[nH]c3cn2)cn1 [Example 364, (R)-1-(4-(5-(1-methyl-1H-pyrazol-4-yl)-1H-pyrazolo[3,4-c]pyridin-3-yl)pyrimidin-2-yl)piperidin-3-amine]  0.052 nM
30. Cn1ccc(-c2n[nH]c3cnc(-c4cncc(N5CCC(N)CC5)n4)cc23)n1 [Example 233, 1-(6-(3-(1-methyl-1H-pyrazol-3-yl)-1H-pyrazolo[3,4-c]pyridin-5-yl)pyrazin-2-yl)piperidin-4-amine]  0.051 nM
31. N[C@H]1CCC[C@@H](Nc2cccc(-c3n[nH]c4cnc(-c5cccnc5)cc34)n2)C1 [Example 340, (1R,3S)-N1-(6-(5-(pyridin-3-yl)-1H-pyrazolo[3,4-c]pyridin-3-yl)pyridin-2-yl)cyclohexane-1,3-diamine]  0.044 nM
32. CCn1cc(-c2cc3c(-c4cccc(N5CCNC[C@H](O)C5)n4)n[nH]c3cn2)cn1 [Example 410, (S)-1-(6-(5-(1-ethyl-1H-pyrazol-4-yl)-1H-pyrazolo[3,4-c]pyridin-3-yl)pyridin-2-yl)-1,4-diazepan-6-ol]  0.039 nM
33. CCc1ccc(-c2n[nH]c3cnc(-c4cccnc4)cc23)nc1N1CCC[C@H](N)C1 [Example 327, (S)-1-(3-ethyl-6-(5-(pyridin-3-yl)-1H-pyrazolo[3,4-c]pyridin-3-yl)pyridin-2-yl)piperidin-3-amine]  0.035 nM
34. CCn1cc(-c2cc3c(-c4cccc(N5CCC[C@H](N)CC5)n4)n[nH]c3cn2)cn1 [Example 481, (S)-1-(6-(5-(1-ethyl-1H-pyrazol-4-yl)-1H-pyrazolo[3,4-c]pyridin-3-yl)pyridin-2-yl)azepan-4-amine]  0.034 nM
35. CCn1cc(-c2cc3c(-c4cccc(N5CCNC(C)(C)C5)n4)n[nH]c3cn2)cn1 [Example 446, 3-(6-(3,3-dimethylpiperazin-1-yl)pyridin-2-yl)-5-(1-ethyl-1H-pyrazol-4-yl)-1H-pyrazolo[3,4-c]pyridine]  0.029 nM
36. CCn1cc(-c2cc3c(-c4ccc(Br)c(N5C[C@H](N)C[C@@H](F)C5)n4)n[nH]c3cn2)cn1 [Example 455, (3R,5R)-1-(3-bromo-6-(5-(1-ethyl-1H-pyrazoI-4-yl)-1H-pyrazolo[3,4-c]pyridin-3-yl)pyridin-2-yl)-5-fluoropiperidin-3-amine]  0.028 nM
37. COc1cncc(-c2cc3c(-c4cccc(N5CCNCC5)n4)n[nH]c3cn2)c1 [Example 436, 5-(5-methoxypyridin-3-yl)-3-(6-(piperazin-1-yl)pyridin-2-yl)-1H-pyrazolo[3,4-c]pyridine]  0.021 nM
38. c1cncc(-c2cc3c(-c4cccc(N5CCCNCC5)n4)n[nH]c3cn2)c1 [Example 187, 3-(6-(1,4-diazepan-1-yl)pyridin-2-yl)-5-(pyridin-3-yl)-1H-pyrazolo[3,4-c]pyridine]  0.015 nM
